{"source": "patent US20070066801A1", "about": "(priority 2003, published 2007)", "key": {"[1]": {"system": "F. novicida", "format": "binding, Francisella novicida"}, "[2]": {"system": "F. philomiragia", "format": "binding, Francisella philomiragia"}, "[3]": {"system": "F. philomiragia", "format": "binding, Francisella philomiragia", "remark": "listed apart in the source"}, "[4]": {"system": "F. tularensis LVS", "format": "binding, Francisella tularensis"}, "[5]": {"system": "F. tularensis LVS", "format": "binding, Francisella tularensis", "remark": "listed apart in the source"}, "[6]": {"system": "F. novicida", "format": "binding, Francisella novicida", "remark": "listed apart in the source"}, "[7]": {"system": "Enterococcus hirae (ATCC 8043)", "format": "binding"}, "[8]": {"system": "E. coli DH5α", "format": "binding"}, "[9]": {"system": "Staphylococcus aureus (ATCC 6538)", "format": "binding"}}}
{"sequence": "TSITPWFFLSRP [p442]", "values": [{"measurement": "effect of added peptide on binding of phage 4-4-2 to F. novicida", "setting": "[1]", "result": "decreased binding of phage 4-4-2"}]}
{"sequence": "TGRHTPWPHFMP [OV1, reference compound]", "values": [{"measurement": "effect of trypsin digestion of the bacterial surface on phage binding to F. philomiragia", "setting": "[2]", "result": "increase in binding after trypsin treatment"}, {"measurement": "phage binding to F. philomiragia in 0.1×PBS", "setting": "[3]", "result": "Neither phage expressing peptides having the sequence of SEQ ID NO: 2 (phage 4-4-2) or SEQ ID NO: 4 (OV1 negative control) bound"}, {"measurement": "phage binding to F. philomiragia in 1×PBS buffer", "setting": "[3]", "result": "equal to the binding of phage 4-4-2"}, {"measurement": "phage binding to F. philomiragia in Tris-Mg buffer", "setting": "[3]", "result": "equal to or greater than the binding of phage 4-4-2"}, {"measurement": "phage binding to F. tularensis LVS in 0.1×PBS", "setting": "[4]", "result": "Neither phage expressing peptides having the sequence of SEQ ID NO: 2 (phage 4-4-2) or SEQ ID NO: 4 (OV1 negative control) bound"}, {"measurement": "ratio of phage binding to F. tularensis LVS compared to F. philomiragia", "setting": "[4]", "result": "approximately equal binding"}, {"measurement": "effect of trypsin digestion of the bacterial surface on phage binding to F. tularensis LVS", "setting": "[5]", "result": "increase in binding after trypsin treatment"}, {"measurement": "phage binding to F. novicida in 0.1×PBS", "setting": "[6]", "result": "Neither phage expressing peptides having the sequence of SEQ ID NO: 2 (phage 4-4-2) or SEQ ID NO: 4 (OV1 negative control) bound"}, {"measurement": "phage binding to F. novicida in Tris-Mg buffer", "setting": "[6]", "result": "equal to or greater than the binding of phage 4-4-2"}, {"measurement": "ratio of phage binding to F. novicida compared to F. philomiragia", "setting": "[6]", "result": "approximately equal binding"}]}
{"sequence": "SLFWTIPIPSFR [p442S, reference compound]", "values": [{"measurement": "effect of added peptide on binding of phage 4-4-2 to F. novicida", "setting": "[1]", "result": "did not inhibit the binding of phage 4-4-2"}]}
{"sequence": "TSITPWFFLSRP [phage 4-4-2]", "values": [{"measurement": "effect of trypsin digestion of the bacterial surface on phage binding to F. philomiragia", "setting": "[2]", "result": "small but reproducible increase in binding"}, {"measurement": "phage binding to F. philomiragia in 0.1×PBS", "setting": "[3]", "result": "Neither phage expressing peptides having the sequence of SEQ ID NO: 2 (phage 4-4-2) or SEQ ID NO: 4 (OV1 negative control) bound"}, {"measurement": "level of binding to E. hirae, fold lower than phage binding to F. novicida and F. tularensis LVS", "setting": "[7]", "result": "20-100 fold"}, {"measurement": "binding specificity of phage in Tris-Mg buffer", "setting": "[4]", "result": "showed specificity for the identification of F. tularensis LVS"}, {"measurement": "effect of growth on TSB (versus Chamberlain minimal medium) on phage binding to F. tularensis LVS", "setting": "[4]", "result": "stimulatory effect observed with F. tularensis LVS was not as great"}, {"measurement": "number of phage binding F. tularensis LVS in 1×PBS buffer (versus Tris-Mg)", "setting": "[4]", "result": "not decreased significantly"}, {"measurement": "phage binding to F. tularensis LVS in 0.1×PBS", "setting": "[4]", "result": "Neither phage expressing peptides having the sequence of SEQ ID NO: 2 (phage 4-4-2) or SEQ ID NO: 4 (OV1 negative control) bound"}, {"measurement": "ratio of phage binding to F. tularensis LVS compared to F. philomiragia", "setting": "[4]", "result": "> 100", "unit": "fold"}, {"measurement": "effect of trypsin digestion of the bacterial surface on phage binding to F. tularensis LVS", "setting": "[5]", "result": "distinct trypsin sensitivity"}, {"measurement": "phage binding to F. tularensis LVS after trypsin digestion, relative to no trypsin", "setting": "[5]", "result": "10-20%"}, {"measurement": "amount of phage binding to F. novicida in 1×PBS buffer (versus Tris-Mg)", "setting": "[6]", "result": "increased"}, {"measurement": "effect of growth on TSB (versus Chamberlain minimal medium) on phage binding to F. novicida", "setting": "[6]", "result": "stimulated binding"}, {"measurement": "phage binding to F. novicida in 0.1×PBS", "setting": "[6]", "result": "Neither phage expressing peptides having the sequence of SEQ ID NO: 2 (phage 4-4-2) or SEQ ID NO: 4 (OV1 negative control) bound"}, {"measurement": "ratio of phage binding to F. novicida compared to F. philomiragia", "setting": "[6]", "result": "> 100", "unit": "fold"}, {"measurement": "level of binding to E. coli, fold lower than phage binding to F. novicida and F. tularensis LVS", "setting": "[8]", "result": "20-100 fold"}, {"measurement": "level of binding to S. aureus, fold lower than phage binding to F. novicida and F. tularensis LVS", "setting": "[9]", "result": "20-100 fold"}]}
{"sequence": "LPISNPLPIKRS [SEQ ID NO: 3]", "values": [{"measurement": "ratio of phage binding to F. tularensis LVS compared to F. philomiragia", "setting": "[4]", "result": "no specific binding"}]}
